Test results as given in patent US4801616A, “Diphenylmethanone compounds and anti-inflammatory use thereof” (Eli Lilly and Company, priority 1986, dated 1989).

Assays:
[1] = tested on: Collagen-Induced Arthritis; assay: Collagen-Induced Arthritis Assay, hindpaw volume; format: in vivo, rat (inbred Lewis male); conditions: Rattus norvegicus, po, oral gavage, 5 days per week, 28 or 30 days, rats
Description: Collagen-Induced Arthritis Assay
Type II collagen was isolated from bovine articular cartilage by the method of Strawich and Nimni Biochemistry, 10, 3905 (1971)]. The collagen was dissolved in 0.1 M acetic acid and stored at -20° C. Type II collagen solution was diluted to 2 mg/ml concentration and emulsified thoroughly with an equal volume of incomplete Freund's adjuvant (ICFA). The emulsion containing approximately 0.5 mg of collagen was injected intradermally on day 0 to groups of 6 inbred Lewis male rats (Charles River Breeders; 170-200 g) at various sites in the dorsal area. The hindpaw volumes of each rat were measured and recorded three times a week throughout the test period to assess the inflammatory reaction. The test group animals received compounds under test as suspensions in carboxymethylcellulose vehicle, by oral gavage, 5 days per week (Monday-Friday), beginning on day 1. Control animals received vehicle without a test compound. At the end of the test (day 28 or 30), the blood of these animals was drawn by cardiac puncture and the serum anti-type II collagen antibody levels were estimated by passive hemagglutination technique, using glutaraldehyde treated sheep red cells, to which type II collagen is conjugated [Avramaes et al., Immunochemistry, 6, 67 (1969); Andriopoulos et al., Arth. Rheum. 19, 613 (1976)]. The cellular response or delayed-type hypersensitivity response to type II collagen was measured by the radiometric ear index assay [Kostiala, Immunology, 33, 561 (1977)]. In certain experiments, the bone damage occurring because of immunization with type II collagen and the effects of drugs were determined from the radiographs of the hindpaws of two or three representative animals from each group. Injections of ICFA without collagen II were employed in some rats as a negative control; these rate received only carbomethoxycellulose vehicle during the test.
The % inhibition was calculated according to the following formula: [formula] where Vt is the hindpaw volume of a compound-treated animal (test group), Vc is the hindpaw volume of a non-compound-treated animal (carbomethoxycellulose vehicle only--the control group), and Vv is the hindpaw volume of a vehicle (carbomethoxycellulose) treated animal which received ICFA with no collagen II (negative control group).

[2] = target: T1, 5-lipoxygenase (Cavia porcellus, UniProt A0A286X958); assay: 5-Lipoxygenase (5-LPO) Assay, inhibition of 5-HETE formation in PMNL sonicate supernatant; format: biochemical, guinea pig; conditions: for IC50: guinea pig PMNL sonicate supernatant, 37° C., 5 μM 14C-arachidonic acid
T1 construct: incubating 0.2 ml of the supernatant obtained from the PMNL sonicate with the test compound; from tissue; host or cells: casein-elicited guinea pig peritoneal polymorphonuclear leukocytes (PMNL, more than 95 percent of the cells), sonicated, 30,000 x g supernatant
T1 sequence (A0A286X958 1-674): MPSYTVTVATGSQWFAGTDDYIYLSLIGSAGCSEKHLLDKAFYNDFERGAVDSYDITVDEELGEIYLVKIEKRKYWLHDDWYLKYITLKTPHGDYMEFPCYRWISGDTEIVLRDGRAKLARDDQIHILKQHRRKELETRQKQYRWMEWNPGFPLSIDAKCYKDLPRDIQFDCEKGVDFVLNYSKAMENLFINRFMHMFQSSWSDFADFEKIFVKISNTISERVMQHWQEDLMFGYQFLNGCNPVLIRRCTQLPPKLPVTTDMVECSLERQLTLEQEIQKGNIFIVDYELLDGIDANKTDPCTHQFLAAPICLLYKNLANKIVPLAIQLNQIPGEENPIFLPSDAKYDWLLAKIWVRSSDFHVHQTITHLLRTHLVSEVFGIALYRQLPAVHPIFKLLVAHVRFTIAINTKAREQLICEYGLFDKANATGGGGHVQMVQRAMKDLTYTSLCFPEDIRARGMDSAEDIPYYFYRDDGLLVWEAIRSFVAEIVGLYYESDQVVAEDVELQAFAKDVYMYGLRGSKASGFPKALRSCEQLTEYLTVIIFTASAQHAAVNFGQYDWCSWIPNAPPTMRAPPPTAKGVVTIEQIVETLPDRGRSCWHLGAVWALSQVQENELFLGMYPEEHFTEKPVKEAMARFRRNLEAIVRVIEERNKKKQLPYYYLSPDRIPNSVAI
Description: 5-Lipoxygenase (5-LPO) Assay
Ten milliliters of a 2% casein solution were injected intraperitoneally into guinea pigs weighing 250-300 gm. After 16-18 hours, the guinea pigs were killed by suffocation in a carbon dioxide chamber. The peritoneal cavity was infused with 70 ml of saline and 40-50 ml of the fluid were recovered from the cavity. After centrifugation, cell pellets were washed twice in Hank's balanced salt solution (HBSS) without calcium ion.
The cells were then suspended in 5 ml of sodium phosphate buffer, pH 7.1 containing 1 mM EDTA, and 0.1% gelatin. About 20-30×10^7 cells were obtained from one guinea pig.
The PMNL suspension was disrupted by five 1/2 second pulse sonications at the setting of 3 in a Branson Sonifier, Model 350, equipped with a microtip. The sonicates were combined and centrifuged at 30,000× g for 10 minutes. The supernatant was kept frozen at -70° C. until use.
Enzyme activity was determined by assaying for 5-HETE formation by first incubating 0.2 ml of the supernatant obtained from the PMNL sonicate with the test compound, 1 mM CaCl2, 2 mM ATP, and 1 mM GSH for 5 minutes at 37° C. The mixture is treated with 5 μM ^14 C-arachidonicacid and incubated at 37° C. an additional 10 minutes. The enzyme reaction was then stopped by the addition of 10 μl of 1M citric acid and 10μl of an alcohol solution containing 20 mg/ml each of indomethacin and butylated hydroxyanisole (BHA). The reaction mixture was spotted (50 μl on a silica gel plate (Baker TLC plate S1250-PA-19C) and subjected to TLC in a solvent system of ethyl acetate/2,2,4-trimethylpentane/glacial acetic acid/water (90:50:20:100).
The radioactivity of the arachidonic acid and its metabolites (5-HETE and LTB4) was visualized from a developed x-ray film which had been exposed to the TLC plate 1-2 days. The amount of 5-HETE formed was quantitated by scraping the silica gel area corresponding to the spot on the x-ray film, and the radioactivity determined in a Isocap/300 liquid scintillation counter (Searle Analytic, Inc.).
The percent inhibition of the formation of 5-HETE was determined for each concentration of test compound tested as compared to a control experiment wherein no test compound was added. The concentration and percent inhibition values were plotted on semi log paper and the concentration in which formation of 5-HETE is inhibited by 50% (IC50) was determined by interpolation.

Row | Compound | inhibition in vivo at 10 mg/kg [1] [%] | inhibition in vivo at 25 mg/kg [1] [%] | IC50 [2] [µM] | inhibition in vivo at 50 mg/kg [1] [%] | inhibition at 10 µg/mL ([2]; percent inhibition at 10 μg/ml) [%] | inhibition in vivo at 3 mg/kg [1] [%] | inhibition in vivo at 30 mg/kg [1] [%]
1 | CCCc1c(OCCCCC#N)ccc(C(=O)c2ccccc2O)c1O [Example 11, 5-[3-Hydroxy-4-(2-hydroxybenzoyl)-2-propylphenoxy]pentanenitrile] | 0 | 31 | 2.83 |  |  |  | 
2 | CCCc1c(OCCCCC(=O)O)ccc(C(=O)c2ccccc2O)c1O [Example 30, 5-[3-Hydroxy-4-(2-hydroxybenzoyl)-2-propylphenoxy]pentanoic acid] |  |  |  | 24 | 37 |  | 
3 | CCCc1c(OCCCCc2nnn[nH]2)ccc(C(=O)c2ccccc2O)c1O [Example 26, (2-Hydroxyphenyl)(2-hydroxy-3-propyl-4[4-(1H-tetrazol-5-yl)butoxy]phenyl)methanone] |  | 71 | 1.26 |  |  | 65 | 62
4 | CCCc1c(OCCCCCCCCc2nnn[nH]2)ccc(C(=O)c2ccccc2O)c1O [Example 28, (2-Hydroxyphenyl)[2-hydroxy-3-propyl-4-([8-(1H-tetrazol-5-yl)octyl]oxy)phenyl]methanone] | 48 |  | 1.33 |  |  | 65 | 95
5 | CCCc1c(O)ccc(C(=O)c2ccccc2O)c1O [Example 4, (2,4-Dihydroxy-3-propylphenyl)(2hydroxyphenyl)methanone] |  |  | 5.88 | 47 |  |  | 
6 | CCCc1c(OCCCCc2nnn[nH]2)ccc(C(=O)c2ccccc2OC)c1O [Example 23, (2-Hydroxy-3-propyl-4-[4-(1H-tetrazol-5-yl)butoxy]phenyl)(2-methoxyphenyl)methanone] | 67 | 69 | 1.71 |  |  | 33 | 
7 | CCCc1c(OCCCCCCc2nnn[nH]2)ccc(C(=O)c2ccccc2O)c1O [Example 25, (2-Hydroxyphenyl)[2-hydroxy-3-propyl-4-([6-(1H-tetrazol-5-yl)hexyl]oxy)phenyl]methanone] |  | 39 | 11.8 |  |  |  | 
8 | COc1ccccc1C(=O)c1ccc(OC)c(C)c1O [Example 9, (2-hydroxy-4-methoxy-3-methylphenyl)(2-methoxyphenyl)methanone] |  |  | 3.67 | 0 |  |  | 
